Source: US6916802B2, “Amino ceramide-like compounds and therapeutic methods of use” (Genzyme Corporation, priority 2002, dated 2005)
Values joined by “and” are separate entries in the source; they are usually repeats but may differ in a detail not shown here. Identical values can stand only once. Marks after values point to notes of the source that are not given here.

How the values were obtained:
[1] = system: GlcCer synthase of MDCK cell homogenates; assay: Inhibition of ceramide glucosyltransferase (GlcCer synthase) of MDCK cell homogenates; assay type: biochemical, canine; settings: for Inhibition at 5 μM: 5 μM inhibitor; for Inhibition at 5 μM / % Inhibition at 80 μM: triplicate ± SD, samples partly isomer mixtures; for inhibition of GlcCer synthase by nonionic ceramide-like compounds: 20 μM; for % Inhibition at 80 μM: 80 μM inhibitor
Description: Assay of sphingolipid enzymes. The inhibitors were evaluated for their effectiveness against the GlcCer synthase of MDCK cell homogenates by incubation in a thermostatted ultrasonic bath (Radin N. S. et al., “Ultrasonic Baths as Substitutes for Shaking Incubator Baths,” Enzyme, 45:67-70 (1991)) with octanoyl sphingosine and uridinediphospho[^3H]glucose (Shukla, G. S. et al., “Glucosylceramide Synthase of Mouse Kidney: Further Characterization and Improved Assay Method,” Arch. Biochem. Biophys., 283:372-378 (1990)). The lipoidal substrate (85 μg) was added in liposomes made from 0.57 mg dioleoylphosphatidylcholine and 0.1 mg of Na sulfatide. Confluent cells were washed, then homogenized with a micro-tip sonicator at 0° C. for 3×30 sec; ˜0.2 mg of protein was used in each assay tube. In the case of the aromatic inhibitors, the test compound was simply evaporated to dryness from solution in the incubation tube. […] The aliphatic inhibitors, which appeared to be less soluble in water, were added as part of the substrate liposomes.

[2] = system: 9L brain gliosarcoma cells; assay: Tumor cell growth in vitro (sulforhodamine B), 9L; assay type: cell-based; settings: for effectiveness on growth and survival of 9L cells, in words: FIG. 1
Description: Growth of cell lines. Comparisons of different inhibitors with regard to suppression of human cancer cell growth were made by the University of Michigan Cancer Center in vitro Drug Evaluation Core Laboratory. MCF-7 breast carcinoma cells, HT-29 colon adenocarcinoma cells, H-460 lung large cell carcinoma cells, and 9L brain gliosarcoma cells were grown in RPMI 1640 medium with 5% fetal bovine serum, 2 mM glutamine, 50 units/ml of penicillin, […] of streptomycin, and 0.1 mg/ml of neomycin. UMSCC-10A head and neck squamous carcinoma cells were grown in minimal essential medium with Earle salts and the same supplements. Medium components were from Sigma Chemical Co. Cells were plated in 96-well microtiter plates (1000 cells/well for H-460 and 9L cells, and 2000 cells/well for the other lines), and the test compounds were added 1 day later. The stock inhibitor solutions, 2 mM in 2 mM BSA, were diluted with different amounts of additional 2 mM BSA, then each solution was diluted 500-fold with growth medium to obtain the final concentrations indicated in the Figures and Tables.
Five days after plating the H-460 and 9L cells, or 6 days for the other lines, cell growth was evaluated by staining the adhering cells with sulforhodamine B and measuring the absorbance at 520 nm (Skehan, P. et al., “New Colorimetric Cytotoxicity Assay for Anticancer-Drug Screening,” J. Natl. Cancer Inst., 82:1107-1112 (1990)). The absorbance of the treated cultures is reported as percent of that of control cultures, to provide an estimate of the fraction of the cells that survived, or of inhibition of growth rate.

Acid SMase = assay: Acid sphingomyelinase of MDCK cells; assay type: biochemical, canine
Description: Acid and neutral SMase assays were based on the procedures of Gatt et al. (Gatt, S. et al., “Assay of Enzymes of Lipid Metabolism With Colored and Fluorescent Derivatives of Natural Lipids,” Meth. Enzymol., 72:351-375 (1981)), using liposomes containing NBD-SM dispersed like the labeled ceramide (10 μM substrate and 30 μM lecithin). The assay medium for the neutral enzyme also contained 50 mM Tris-Cl^− (pH 7.4), 25 mM KCl, 5 mM MgCl2 and 0.29 mg of MDCK cell protein in a total volume of 0.25 ml. Incubation was at 37° C. for 30 min in the ultrasonic bath, then the fluorescent product, NBD-ceramide, was isolated by partitioning the assay mixture with 0.45 ml 2-propanol, 1.5 ml heptane, and 0.2 ml water. After centrifugation, a trace of contaminating NBD-SM was removed from 0.9 ml of the upper layer by washing with 0.35 ml water. The upper layer was analyzed with a fluorometer (460 nm excitation, 515 nm emission).
[…] The resultant ceramide was determined as above.

[3] = system: Neutral sphingomyelinase (SMase); assay: Neutral sphingomyelinase of MDCK cells; assay type: biochemical, canine
Description: Acid and neutral SMase assays were based on the procedures of Gatt et al. (Gatt, S. et al., “Assay of Enzymes of Lipid Metabolism With Colored and Fluorescent Derivatives of Natural Lipids,” Meth. Enzymol., 72:351-375 (1981)), using liposomes containing NBD-SM dispersed like the labeled ceramide (10 μM substrate and 30 μM lecithin). […] Incubation was at 37° C. for 30 min in the ultrasonic bath, then the fluorescent product, NBD-ceramide, was isolated by partitioning the assay mixture with 0.45 ml 2-propanol, 1.5 ml heptane, and 0.2 ml water. After centrifugation, a trace of contaminating NBD-SM was removed from 0.9 ml of the upper layer by washing with 0.35 ml water. The upper layer was analyzed with a fluorometer (460 nm excitation, 515 nm emission).

Ceramide synthase = Ceramide synthase of MDCK homogenate; assay type: biochemical, canine
Description: Ceramide synthase was assayed with 1 μM [3-^3H]sphingosine (70,000 cpm, repurified by column chromatography), 0.2 mM stearoyl-CoA, 0.5 mM dithiothreitol, and ˜300 μg of MDCK homogenate protein in 25 mM phosphate-K^+ buffer, pH 7.4, in a total volume of 0.2 ml. The incubation (for 30 min) and TLC were carried out as above and the ceramide band was counted.

neutral ceramidase = assay: Neutral ceramidase of MDCK cell homogenate; assay type: biochemical, canine
Description: (§1) Acid and neutral ceramidases were assayed under conditions like those above, but the medium contained 110 μM [1-^14C]decanoyl sphingosine (10^5 cpm) in 340 μM dioleoylphosphatidylcholine liposomes and 0.34 mg of MDCK cellular protein homogenate. […] After 60 min in the ultrasonic bath, 3 ml of C-M 2:1, carrier decanoic acid, and 0.6 ml of 0.9% saline were added and the lipids in the lower layer were separated by TLC with C-HOAc 9:1. The liberated decanoic acid was scraped off the glass plate and counted.

acid ceramidase = assay: Acid ceramidase of MDCK cell homogenate; assay type: biochemical, canine
Description: as §1

`CCCCCCCCCCCCC/C=C/[C@H](O)[C@@H](CN1CCCC1)NC(=O)CCCCCCCCCCCCCCC` [IV-230A] was tested. Which “Inhibition at 5 μM” value [1] did it give?
The value was 19 ± 2.1^g %.

For `CCCCCCCCCCCCC/C=C/[C@@H](O)[C@H](CO)NC(C)=O` [N-acetylsphingosine, reference compound], which “inhibition of GlcCer synthase by nonionic ceramide-like compounds” value [1] is on record?
The value was “did not inhibit”.

How did the “% Inhibition at 80 μM” value [1] turn out when `CCCCCCCCCCCCCCCC(=O)NC(CN1CCCC(N(C)C)C1)C(O)c1ccccc1` (mixture of isomers) [BML-121] was run?
Its value is 11 ± 0.4^c %.

For `CCCCCCCCCCCCCCCC(=O)NC(CN1CCCCCC1)C(O)c1ccccc1` (mixture of isomers) [BML-116], which “% Inhibition at 80 μM” value [1] is on record?
Its value is 28 ± 3.2^a %.

How did the “inhibition of GlcCer synthase by nonionic ceramide-like compounds” value [1] turn out when `CCCCCCCCCCCCCC(=O)N[C@@H](C)[C@H](O)c1ccccc1` [D-erythro-N-myristoyl-2-amino-1-phenyl-1-propanol, reference compound] was run?
The value was “did not inhibit”.

How did the “% Inhibition at 80 μM” value [1] turn out when `CCCCCCCCCCCCCCCC(=O)NC(CN(C)CCO)C(O)c1ccccc1` (mixture of isomers) [BML-122] was run?
Its value is 58 ± 1.6^d %.

For `CCCCCCCCCCCCCCCC(=O)NC(CN1CCOCC1)C(O)c1ccc(F)cc1` (mixture of isomers) [BML-113], which “% Inhibition at 80 μM” value [1] is on record?
Its value is 60 ± 4.7^a %.

For `CCCCCCCCCCCCCCCC(=O)NC(CN1CCOCC1)C(O)c1ccc(OC)cc1` (mixture of isomers) [BML-125], which “Inhibition at 5 μM” value [1] is on record?
The value was 9 ± 3.0^e %.

Which “activity against GlcCer synthase, in words” value [1] does the source give for `CCCCCCCCCCCCCCCC(=O)NC(CN(CC)CC)C(O)c1ccccc1` (mixture of isomers) [BML-114] here?
Its value is “little or no activity”.

What about the “% Inhibition at 80 μM” value [1] of the same compound?
Its value is 31 ± 2.9^a %.

For `CCCCCCCCCCCCCCCC(=O)NC(CN1CCOCC1)C(O)c1ccccc1` (stereo not shown) [PPMP, reference compound], which “effectiveness on growth and survival of 9L cells, in words” value [2] is on record?
Its value is “relatively weak effectiveness”.

What about the “Inhibition at 5 μM” value ([1]; 5 µM) of the same compound?
The value was 32 ± 1.8^e % and 32 ± 0.7^f %.

Which “Inhibition at 5 μM” value [1] does the source give for `CCCCCCCCCCCCC/C=C/[C@@H](O)[C@@H](CN1CCOCC1)NC(=O)CCCCCCCCCCCCCCC` [IV-206A] here?
Its value is 73 ± 1.5^g %.

What does the source list for `CCCCCCCCCC(=O)N[C@H](CN1CCOCC1)[C@H](O)c1ccccc1` [PDMP, 1R-phenyl-2R-decanoylamino-3-morpholino-1-propanol, reference compound]?
Sphingomyelinase pH 4.5, enzyme activity (% of control) (Acid SMase; 5 μM): 102 ± 3 % of control; Sphingomyelinase pH 4.5, enzyme activity (% of control) (Acid SMase; 50 μM): 100 ± 3 % of control; Sphingomyelinase pH 7.1, enzyme activity (% of control) ([3]; 5 μM): 121 ± 13 % of control; Sphingomyelinase pH 7.1, enzyme activity (% of control) ([3]; 50 μM): 108 ± 8 % of control; effectiveness on growth and survival of 9L cells, in words [2]: even weaker effectiveness; Ceramide Synthase, enzyme activity (% of control) (Ceramide synthase; 5 μM): 99 ± 5 % of control; Ceramide Synthase, enzyme activity (% of control) (Ceramide synthase; 50 μM): 66 ± 9^a % of control; Inhibition at 5 μM [1]: 16 ± 1.8^f %; % Inhibition at 80 μM [1]: 90 ± 0.8^a %; Ceramidase pH 7.4, enzyme activity (% of control) (neutral ceramidase; 5 μM): 116 ± 19 % of control; Ceramidase pH 7.4, enzyme activity (% of control) (neutral ceramidase; 50 μM): 105 ± 11 % of control; Ceramidase pH 4.5, enzyme activity (% of control) (acid ceramidase; 5 μM): 97 ± 4 % of control; Ceramidase pH 4.5, enzyme activity (% of control) (acid ceramidase; 50 μM): 133 ± 13^a % of control

Which “% Inhibition at 80 μM” value [1] does the source give for `CCCCCCCCCCCCCCCC(=O)NC(CN1CCN(C)CC1)C(O)c1ccccc1` (mixture of isomers) [BML-120] here?
Its value is 11 ± 3.0^c %.

With `CCCCCCCCCCCCC/C=C/[C@H](O)[C@@H](CN1CCOCC1)NC(=O)CCCCCCCCCCCCCCC` [IV-181A] as the compound, how does the “Inhibition at 5 μM” value [1] read?
Its value is 12 ± 0.2^g %.

`CCCCCCCCCC(=O)NC(CN1CCOCC1)C(O)c1ccc(F)cc1` (mixture of isomers) [BML-117] was tested. Which “% Inhibition at 80 μM” value [1] did it give?
Its value is 35 ± 0.6^b %.

What does the source list for `CCCCCCCCCCCCCCCC(=O)NC(CN1CCCC1)C(O)c1ccc(OC)cc1` (mixture of isomers) [BML-126]?
IC50 ([2]; 9L, rounded off to one digit, read-out: Inhibition of tumor cell growth in vitro, IC50): 2000 nM; Inhibition at 5 μM [1]: 54 ± 0.3^f %; % Inhibition at 80 μM [1]: 60 ± 1.8^e %

`CCCCCCCCCCCCCCCC(=O)NC(CN)C(O)c1ccccc1` (mixture of isomers) [BML-124] was tested. Which “activity against GlcCer synthase, in words” value [1] did it give?
Its value is “little or no activity”.

And the “% Inhibition at 80 μM” value [1]?
Its value is −2 ± 1.6^d %.
